Assay results: ChEMBL document CHEMBL1137908, “Synthesis and antibacterial activity of novel 6-fluoro-1-[(1R,2S)-2-fluorocyclopropan-1-yl]-4-oxoquinoline-3-carboxylic acids bearing cyclopropane-fused 2-amino-8-azabicyclo[4.3.0]nonan-8-yl substituents at the C-7 position” (Bioorg Med Chem Lett, 2004)
≈ marks a conversion by molar mass, not a printed value.

Key:
DNA topoisomerase II = DNA topoisomerase II (Homo sapiens, UniProt P11388+Q02880); assay: Inhibitory concentration against human DNA topoisomerase II; type: protein assay
[1] = molecular target: T1, DNA topoisomerase 4 subunit A (Staphylococcus aureus subsp. aureus Mu50, UniProt Q931S2); assay: Inhibitory concentration against Staphylococcus aureus DNA topoisomerase IV
T1 sequence (Q931S2 whole entry): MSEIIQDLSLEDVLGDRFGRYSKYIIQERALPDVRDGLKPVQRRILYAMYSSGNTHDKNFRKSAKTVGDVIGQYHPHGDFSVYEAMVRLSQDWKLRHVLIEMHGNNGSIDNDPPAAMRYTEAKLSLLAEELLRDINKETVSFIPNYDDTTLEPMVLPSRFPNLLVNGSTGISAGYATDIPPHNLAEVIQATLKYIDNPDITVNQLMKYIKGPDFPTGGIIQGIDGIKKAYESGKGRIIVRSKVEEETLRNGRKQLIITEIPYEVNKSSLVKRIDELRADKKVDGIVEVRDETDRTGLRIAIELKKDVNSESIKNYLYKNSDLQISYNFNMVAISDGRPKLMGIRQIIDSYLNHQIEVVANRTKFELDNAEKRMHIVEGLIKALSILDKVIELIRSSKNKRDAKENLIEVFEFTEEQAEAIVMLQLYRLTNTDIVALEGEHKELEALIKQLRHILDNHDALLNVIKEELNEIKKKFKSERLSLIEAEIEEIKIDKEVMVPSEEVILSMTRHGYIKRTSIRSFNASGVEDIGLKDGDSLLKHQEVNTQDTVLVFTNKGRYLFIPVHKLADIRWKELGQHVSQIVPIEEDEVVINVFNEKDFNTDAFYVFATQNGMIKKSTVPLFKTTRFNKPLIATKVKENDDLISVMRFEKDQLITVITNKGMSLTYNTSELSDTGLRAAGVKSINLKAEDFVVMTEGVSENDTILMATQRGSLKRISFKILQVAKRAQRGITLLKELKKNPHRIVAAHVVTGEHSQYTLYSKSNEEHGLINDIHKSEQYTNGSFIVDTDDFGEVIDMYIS

Staphylococcus aureus [2] = assay: Antibacterial activity against Staphylococcus aureus FDA 209P was determined; type: functional
[3] = system: Staphylococcus epidermidis; assay: Antibacterial activity against Staphylococcus epidermidis 56500 was determined; type: functional
[4] = Ratio of binding to human DNA topoisomerase II and Staphylococcus aureus DNA topoisomerase IV
Enterococcus faecalis = assay: Antibacterial activity against Enterococcus faecalis ATCC 19433 was determined; type: functional
Streptococcus mitis = assay: Antibacterial activity against Streptococcus mitis IID685 was determined; type: functional
Streptococcus pyogenes = assay: Antibacterial activity against Streptococcus pyogenes G-36 was determined; type: functional
Klebsiella pneumoniae = assay: Antibacterial activity against Klebsiella pneumoniae type II was determined; type: functional
Escherichia coli = assay: Antibacterial activity against Escherichia coli NIHJ was determined; type: functional
Streptococcus pneumoniae = assay: Antibacterial activity against Penicillin-resistant Streptococcus pneumoniae (PRSP) J-24 was determined; type: functional
Staphylococcus aureus [5] = assay: Antibacterial activity against methicillin-resistant Staphylococcus aureus (MRSA) 870307 was determined; type: functional
[6] = Staphylococcus aureus, read-out: MIC
[7] = Staphylococcus epidermidis, read-out: MIC
[8] = Enterococcus faecalis, ATCC 19433, read-out: MIC
[9] = Streptococcus mitis, read-out: MIC
[10] = Streptococcus pyogenes, read-out: MIC
[11] = Klebsiella pneumoniae, read-out: MIC
[12] = Escherichia coli, read-out: MIC
[13] = Streptococcus pneumoniae, read-out: MIC

In the case of `Cc1c(N2C[C@H]3CCC[C@@H](N)[C@H]3C2)c(F)c(N)c2c(=O)c(C(=O)O)cn([C@@H]3C[C@@H]3F)c12`, the IC50 (DNA topoisomerase II) is reported as 4.66 µg/mL (≈ 10.8 µM), the IC50 [1] is reported as 717 nM and the MIC (Staphylococcus aureus [2]; [6]) is reported as 0.006 µg/mL (≈ 0.0139 µM). The MIC [3, 7] was at most 0.003 µg/mL, the Selectivity [4] was 14.7 and the MIC (Enterococcus faecalis; [8]) was 0.02 µg/mL (≈ 0.0462 µM). It also gave an MIC (Streptococcus mitis; [9]) of at most 0.003 µg/mL, an MIC (Streptococcus pyogenes; [10]) of at most 0.003 µg/mL and an MIC (Klebsiella pneumoniae; [11]) of 0.02 µg/mL (≈ 0.0462 µM). It also gave an MIC (Escherichia coli; [12]) of 0.006 µg/mL (≈ 0.0139 µM), an MIC (Streptococcus pneumoniae; [13]) of at most 0.003 µg/mL and an MIC (Staphylococcus aureus [5]; [6]) of 0.01 µg/mL (≈ 0.0231 µM).

`Cc1c(N2C[C@H]3CC[C@H]4C[C@@]4(N)[C@H]3C2)c(F)c(N)c2c(=O)c(C(=O)O)cn([C@@H]3C[C@@H]3F)c12` showed an IC50 (DNA topoisomerase II) of 34.21 µg/mL (≈ 77 µM), an IC50 [1] of 810 nM and an MIC (Staphylococcus aureus [2]; [6]) of at most 0.003 µg/mL. The MIC [3, 7] was at most 0.003 µg/mL, the Selectivity [4] was 93.2 and the MIC (Enterococcus faecalis; [8]) was 0.02 µg/mL (≈ 0.045 µM). For the same compound, the MIC (Streptococcus mitis; [9]) was at most 0.003 µg/mL, the MIC (Streptococcus pyogenes; [10]) was at most 0.003 µg/mL and the MIC (Klebsiella pneumoniae; [11]) was 0.01 µg/mL (≈ 0.0225 µM). The MIC (Escherichia coli; [12]) was at most 0.003 µg/mL, the MIC (Streptococcus pneumoniae; [13]) was 0.006 µg/mL (≈ 0.0135 µM) and the MIC (Staphylococcus aureus [5]; [6]) was 0.01 µg/mL (≈ 0.0225 µM).

Compound `Nc1c(F)c(N2C[C@H]3CC[C@H]4C[C@@]4(N)[C@H]3C2)c(F)c2c1c(=O)c(C(=O)O)cn2[C@@H]1C[C@@H]1F` (stereo in doubt; 13 (+)) [listing 1 of 2 here] has an IC50 (DNA topoisomerase II) of 21.89 µg/mL (≈ 48.8 µM), an IC50 [1] of 669 nM and an MIC (Staphylococcus aureus [2]; [6]) of at most 0.003 µg/mL. For the same compound, the MIC [3] was “<=0.003 ug ml-1”, the MIC (Enterococcus faecalis) was 0.02 µg/mL (≈ 0.0446 µM) and the MIC (Streptococcus mitis) was “<=0.003 ug ml-1”. The MIC (Streptococcus pyogenes) was “<=0.003 ug ml-1”, the MIC (Klebsiella pneumoniae) was 0.01 µg/mL (≈ 0.0223 µM) and the MIC (Escherichia coli; [12]) was at most 0.003 µg/mL. For the same compound, the MIC (Streptococcus pneumoniae) was “<=0.003 ug ml-1” and the MIC (Staphylococcus aureus [5]) was 0.006 µg/mL (≈ 0.0134 µM).

For `Nc1c(F)c(N2C[C@H]3CC[C@H]4C[C@@]4(N)[C@H]3C2)c(F)c2c1c(=O)c(C(=O)O)cn2[C@@H]1C[C@@H]1F` (stereo in doubt; 13 (+)) [listing 2 of 2 here], the Selectivity [4] was 71.3.

In the case of `Nc1c(F)c(N2C[C@H]3CC[C@H]4C[C@@]4(N)[C@H]3C2)c(F)c2c1c(=O)c(C(=O)O)cn2[C@@H]1C[C@@H]1F` (stereo in doubt; 14 (-)), the MIC [3] is reported as 0.02 µg/mL (≈ 0.0446 µM), the MIC (Enterococcus faecalis) is reported as 0.2 µg/mL (≈ 0.446 µM) and the MIC (Streptococcus mitis) is reported as 0.02 µg/mL (≈ 0.0446 µM). For the same compound, the MIC (Streptococcus pyogenes) was 0.05 µg/mL (≈ 0.111 µM), the MIC (Klebsiella pneumoniae) was 0.05 µg/mL (≈ 0.111 µM) and the MIC (Escherichia coli) was 0.006 µg/mL (≈ 0.0134 µM). It also gave an MIC (Streptococcus pneumoniae) of 0.02 µg/mL (≈ 0.0446 µM) and an MIC (Staphylococcus aureus [5]) of 0.2 µg/mL (≈ 0.446 µM).

Compound `Nc1c(F)c(N2C[C@H]3C[C@@H]4C[C@@H]4[C@@H](N)[C@H]3C2)c(F)c2c1c(=O)c(C(=O)O)cn2[C@@H]1C[C@@H]1F` (stereo in doubt; 24 (+)) [listing 1 of 2 here] has an IC50 (DNA topoisomerase II) of 22.47 µg/mL (≈ 50.1 µM), an IC50 [1] of 312 nM and an MIC (Staphylococcus aureus [2]; [6]) of at most 0.003 µg/mL. The MIC [3] was “<=0.003 ug ml-1”, the MIC (Enterococcus faecalis) was 0.02 µg/mL (≈ 0.0446 µM) and the MIC (Streptococcus mitis) was “<=0.003 ug ml-1”. For the same compound, the MIC (Streptococcus pyogenes) was “<=0.003 ug ml-1”, the MIC (Klebsiella pneumoniae) was 0.01 µg/mL (≈ 0.0223 µM) and the MIC (Escherichia coli) was “<=0.003 ug ml-1”. The MIC (Streptococcus pneumoniae) was “<=0.003 ug ml-1” and the MIC (Staphylococcus aureus [5]) was 0.01 µg/mL (≈ 0.0223 µM).

Work on `Nc1c(F)c(N2C[C@H]3C[C@@H]4C[C@@H]4[C@@H](N)[C@H]3C2)c(F)c2c1c(=O)c(C(=O)O)cn2[C@@H]1C[C@@H]1F` (stereo in doubt; 24 (+)) [listing 2 of 2 here] yielded a Selectivity [4] of 151.

`Nc1c(F)c(N2C[C@H]3C[C@@H]4C[C@@H]4[C@@H](N)[C@H]3C2)c(F)c2c1c(=O)c(C(=O)O)cn2[C@@H]1C[C@@H]1F` (stereo in doubt; 25 (-)) gave an MIC (Staphylococcus aureus [2]) of 0.006 µg/mL (≈ 0.0134 µM), an MIC [3] of 0.05 µg/mL (≈ 0.111 µM) and an MIC (Enterococcus faecalis) of 0.2 µg/mL (≈ 0.446 µM). It also gave an MIC (Streptococcus mitis) of 0.1 µg/mL (≈ 0.223 µM), an MIC (Streptococcus pyogenes) of 0.39 µg/mL (≈ 0.87 µM) and an MIC (Klebsiella pneumoniae) of 0.1 µg/mL (≈ 0.223 µM). It also gave an MIC (Escherichia coli) of 0.01 µg/mL (≈ 0.0223 µM), an MIC (Streptococcus pneumoniae) of 0.1 µg/mL (≈ 0.223 µM) and an MIC (Staphylococcus aureus [5]) of 1.56 µg/mL (≈ 3.48 µM).

For `Nc1c(F)c(N2C[C@H]3C[C@@H]4C[C@@H]4[C@H](N)[C@H]3C2)c(F)c2c1c(=O)c(C(=O)O)cn2[C@@H]1C[C@@H]1F` (stereo in doubt; 26 (+)), the IC50 (DNA topoisomerase II) was 6.65 µg/mL (≈ 14.8 µM), the IC50 [1] was 847 nM and the MIC (Staphylococcus aureus [2]; [6]) was at most 0.003 µg/mL. It also gave an MIC [3, 7] of at most 0.003 µg/mL, an MIC (Enterococcus faecalis; [8]) of 0.02 µg/mL (≈ 0.0446 µM) and an MIC (Streptococcus mitis; [9]) of at most 0.003 µg/mL. The MIC (Streptococcus pyogenes; [10]) was 0.006 µg/mL (≈ 0.0134 µM), the MIC (Klebsiella pneumoniae; [11]) was 0.01 µg/mL (≈ 0.0223 µM) and the MIC (Escherichia coli; [12]) was at most 0.003 µg/mL. For the same compound, the MIC (Streptococcus pneumoniae; [13]) was at most 0.003 µg/mL and the MIC (Staphylococcus aureus [5]) was 0.02 µg/mL (≈ 0.0446 µM).
